Tests used:
Human JNK1α1 = Human JNK1α1 (Homo sapiens (Human), UniProt P45983); assay: JNK assay in vitro: phosphorylation of GST-ATF2 (19-96) with [γ-33P] ATP, JNK1; type: biochemical; details: 2 nM enzyme, 1 μM ATF2, 6 μM ATP (Km), 30° C. 30 min
Procedure: JNK activity was measured by phosphorylation of GST-ATF2 (19-96) with [γ-^33P] ATP. […] Human JNK2α2 assay contains 1 nM enzyme, 1 μM ATF2, 8 μM ATP with 1 uCi [γ-^33P] ATP. Human JNK1α1 assay contains 2 nM enzyme, 1 μM ATF2, 6 μM ATP with 1 μCi [γ-^33P] ATP. […] ATP. The enzyme assay was carried out in the presence or absence of several compound concentrations. JNK and compound were pre-incubated for 10 min., followed by initiation of the enzymatic reaction by adding ATP and the substrate. The reaction mixture was incubated at 30° C. for 30 min. […] The incorporation of ^33P into ATF2 was quantified on a microplate scintillation counter (Packard Topcount). Compound inhibition potency on JNK was measured by IC50 value generated from ten concentration inhibition curves fitted into the 3-parameter model: % inhibition=Maximum/(1+(IC50/[Inhibitor])^slope). Data were analyzed on Microsoft Excel for parameter estimation.

Human JNK2α2 = Human JNK2α2 (Homo sapiens (Human), UniProt P45984); assay: JNK assay in vitro: phosphorylation of GST-ATF2 (19-96) with [γ-33P] ATP, JNK2; type: biochemical; details: 1 nM enzyme, 1 μM ATF2, 8 μM ATP (Km), 30° C. 30 min
Chain of Human JNK2α2 (P45984 whole entry): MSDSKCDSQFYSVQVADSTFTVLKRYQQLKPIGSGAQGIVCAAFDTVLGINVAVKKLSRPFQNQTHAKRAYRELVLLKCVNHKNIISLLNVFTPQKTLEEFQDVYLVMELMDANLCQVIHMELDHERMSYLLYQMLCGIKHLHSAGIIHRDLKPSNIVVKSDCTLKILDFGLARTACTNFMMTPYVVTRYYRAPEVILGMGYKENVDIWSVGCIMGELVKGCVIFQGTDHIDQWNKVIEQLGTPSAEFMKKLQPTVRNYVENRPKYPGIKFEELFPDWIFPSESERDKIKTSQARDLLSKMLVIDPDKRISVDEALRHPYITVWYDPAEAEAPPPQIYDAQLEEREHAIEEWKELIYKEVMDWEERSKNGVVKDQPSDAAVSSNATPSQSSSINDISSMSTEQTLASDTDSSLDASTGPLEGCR
Procedure: JNK activity was measured by phosphorylation of GST-ATF2 (19-96) with [γ-^33P] ATP. […] Human JNK2α2 assay contains 1 nM enzyme, 1 μM ATF2, 8 μM ATP with 1 uCi [γ-^33P] ATP. Human JNK1α1 assay contains 2 nM enzyme, 1 μM ATF2, 6 μM ATP with 1 μCi [γ-^33P] ATP. Human JNK3 (Upstate Biotech #14-501M) assay contains 2 nM enzyme, 1 μM ATF2, 4 μM ATP with 1 μCi [γ-^33P] ATP. The enzyme assay was carried out in the presence or absence of several compound concentrations. JNK and compound were pre-incubated for 10 min., followed by initiation of the enzymatic reaction by adding ATP and the substrate. The reaction mixture was incubated at 30° C. for 30 min. At the end of incubation, the reaction was terminated by transferring 25 μl of the reaction mixture to 150 μl of 10% glutathione Sepharose® slurry (Amersham #27-4574-01) containing 135 mM EDTA. The reaction product was captured on the affinity resin, and washed on a filtration plate (Millipore, MABVNOB50) with phosphate buffered saline for six times to remove free radionucleotide. The incorporation of ^33P into ATF2 was quantified on a microplate scintillation counter (Packard Topcount). Compound inhibition potency on JNK was measured by IC50 value generated from ten concentration inhibition curves fitted into the 3-parameter model: % inhibition=Maximum/(1+(IC50/[Inhibitor])^slope). Data were analyzed on Microsoft Excel for parameter estimation.

Chain of Human JNK1α1 (P45983 other isoform, or with tags, fused parts or gaps): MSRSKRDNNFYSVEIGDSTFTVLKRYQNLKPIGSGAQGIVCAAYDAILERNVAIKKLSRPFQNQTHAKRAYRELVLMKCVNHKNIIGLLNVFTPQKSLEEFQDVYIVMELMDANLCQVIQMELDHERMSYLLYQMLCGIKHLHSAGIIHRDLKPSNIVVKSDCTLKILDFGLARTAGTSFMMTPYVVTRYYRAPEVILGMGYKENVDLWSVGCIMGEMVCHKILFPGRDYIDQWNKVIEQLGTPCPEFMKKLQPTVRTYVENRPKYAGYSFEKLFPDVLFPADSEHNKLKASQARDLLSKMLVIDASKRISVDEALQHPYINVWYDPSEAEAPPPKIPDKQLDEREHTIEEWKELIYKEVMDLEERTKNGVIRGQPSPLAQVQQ

O[C@H]1CC[C@H](Nc2nccc(-n3ccc4c(N5CCCCC5)cccc43)n2)CC1 [Compound I-2, 4-[4-(4-Piperidin-1-yl-indol-1-yl)-pyrimidin-2-ylamino]-cyclohexanol]
IC50 (Human JNK1α1): 93.9 nM | IC50 (Human JNK2α2): 654 nM

CS(=O)(=O)N[C@H]1CC[C@H](Nc2nccc(-n3ccc4c(N5CCC(O)CC5)cccc43)n2)CC1 [Compound I-4, N-(4-{4-[4-(4-Hydroxy-piperidin-1-yl)-indol-1-yl]-pyrimidin-2-ylamino}-cyclohexyl)-methanesulfonamide]
IC50 (Human JNK1α1): 42.9 nM | IC50 (Human JNK2α2): 292 nM

CC(=O)N1CCN(c2cccc3c2ccn3-c2ccnc(N[C@H]3CC[C@H](N(C)S(C)(=O)=O)CC3)n2)CC1 [Compound I-5, N-(4-{4-[4-(4-Acetyl-piperazin-1-yl)-indol-1-yl]-pyrimidin-2-ylamino}-cyclohexyl)-N-methyl-methanesulfonamide]
IC50 (Human JNK1α1): 10.3 nM | IC50 (Human JNK2α2): 105 nM

CS(=O)(=O)N[C@H]1CC[C@H](Nc2nccc(-n3ccc4c(N5CCC(S(C)(=O)=O)CC5)cccc43)n2)CC1 [Compound I-6, N-(4-{4-[4-(4-Methanesulfonyl-piperidin-1-yl)-indol-1-yl]-pyrimidin-2-ylamino}-cyclohexyl)-methanesulfonamide]
IC50 (Human JNK1α1): 3 nM | IC50 (Human JNK2α2): 23.5 nM

CS(=O)(=O)N[C@H]1CC[C@H](Nc2nccc(-n3ccc4c(N5CCN(C(=O)CC#N)CC5)cccc43)n2)CC1 [Compound I-9, N-[4-(4-{4-[4-(2-Cyano-acetyl)-piperazin-1-yl]-indol-1-yl}-pyrimidin-2-ylamino)-cyclohexyl]-methanesulfonamide]
IC50 (Human JNK1α1): 5.4 nM | IC50 (Human JNK2α2): 36.2 nM

CC(=O)OCC(=O)N1CCN(c2cccc3c2ccn3-c2ccnc(N[C@H]3CC[C@H](NS(C)(=O)=O)CC3)n2)CC1 [Compound I-10, Acetic acid 2-(4-{1-[2-(4-methanesulfonylamino-cyclohexylamino)-pyrimidin-4-yl]-1H-indol-4-yl}-piperazin-1-yl)-2-oxo-ethyl ester]
IC50 (Human JNK1α1): 10.4 nM | IC50 (Human JNK2α2): 74.9 nM

CC(=O)N[C@H]1CC[C@H](Nc2nccc(-n3ccc4c(N5CCC(S(C)(=O)=O)CC5)cccc43)n2)CC1 [Compound I-13, N-(4-{4-[4-(4-Methanesulfonyl-piperidin-1-yl)-indol-1-yl]-pyrimidin-2-ylamino}-cyclohexyl)-acetamide]
IC50 (Human JNK1α1): 6.6 nM | IC50 (Human JNK2α2): 49.3 nM

CC(C)(O)[C@H]1CC[C@H](Nc2nccc(-n3ccc4c(N5CCC(S(C)(=O)=O)CC5)cccc43)n2)CC1 [Compound I-14, 2-(4-{4-[4-(4-Methanesulfonyl-piperidin-1-yl)-indol-1-yl]-pyrimidin-2-ylamino}-cyclohexyl)-propan-2-ol]
IC50 (Human JNK1α1): 3 nM | IC50 (Human JNK2α2): 19.2 nM

CN(C)S(=O)(=O)N[C@H]1CC[C@H](Nc2nccc(-n3ccc4c(N5CCC(S(C)(=O)=O)CC5)cccc43)n2)CC1 [Compound I-15, [4-{4-[4-(4-Methanesulfonyl-piperidin-1-yl)-indol-1-yl]-pyrimidin-2-ylamino}-cyclohexyl]aminodimethylsulfonamide]
IC50 (Human JNK1α1): 3.6 nM | IC50 (Human JNK2α2): 20.8 nM

CC(=O)N1CCN(c2cccc3c2ccn3-c2ccnc(N[C@H]3CC[C@H](C(=O)N4CCC(O)CC4)CC3)n2)[C@H](C)C1 [Compound I-21, 1-[(R)-4-(1-{2-[4-(4-Hydroxy-piperidine-1-carbonyl)-cyclohexylamino]-pyrimidin-4-yl}-1H-indol-4-yl)-3-methyl-piperazin-1-yl]-ethanone]
IC50 (Human JNK1α1): 31.2 nM | IC50 (Human JNK2α2): 138 nM

CC(C)(C)OC(=O)NCC(=O)N1CCN(c2cccc3c2ccn3-c2ccnc(N[C@H]3CC[C@H](NS(C)(=O)=O)CC3)n2)CC1 [Compound I-22, [2-(4-{1-[2-(4-Methanesulfonylamino-cyclohexylamino)-pyrimidin-4-yl]-1H-indol-4-yl}-piperazin-1-yl)-2-oxo-ethyl]-carbamic acid tert-butyl ester]
IC50 (Human JNK1α1): 3.6 nM | IC50 (Human JNK2α2): 26.4 nM

CN(C)CC(=O)N1CCN(c2cccc3c2ccn3-c2ccnc(N[C@H]3CC[C@H](NS(C)(=O)=O)CC3)n2)CC1 [Compound I-23, N-[4-(4-{4-[4-(2-Dimethylamino-acetyl)-piperazin-1-yl]-indol-1-yl}-pyrimidin-2-ylamino)-cyclohexyl]-methanesulfonamide]
IC50 (Human JNK1α1): 378 nM | IC50 (Human JNK2α2): 1630 nM

CS(=O)(=O)N[C@H]1CC[C@H](Nc2nccc(-n3ccc4c(N5CCN(C(=O)CN)CC5)cccc43)n2)CC1 [Compound I-24, N-[4-(4-{4-[4-(2-Amino-acetyl)-piperazin-1-yl]-indol-1-yl}-pyrimidin-2-ylamino)-cyclohexyl]-methanesulfonamide]
IC50 (Human JNK1α1): 77.7 nM | IC50 (Human JNK2α2): 477 nM

N#CCC(=O)N1CCN(c2cccc3c2ccn3-c2ccnc(N[C@H]3CC[C@H](CN4CC[C@@H](O)C4)CC3)n2)CC1 [Compound I-25, 3-[4-(1-{2-[4-((R)-3-Hydroxy-pyrrolidin-1-ylmethyl)-cyclohexylamino]-pyrimidin-4-yl}-1H-indol-4-yl)-piperazin-1-yl]-3-oxo-propionitrile]
IC50 (Human JNK1α1): 4.2 nM | IC50 (Human JNK2α2): 25.6 nM

CN(C)CCN([C@H]1CC[C@H](Nc2nccc(-n3ccc4c(N5CCN(C(=O)CC#N)CC5)cccc43)n2)CC1)S(C)(=O)=O [Compound I-26, N-[4-(4-{4-[4-(2-Cyano-acetyl)-piperazin-1-yl]-indol-1-yl}-pyrimidin-2-ylamino)-cyclohexyl]-N-(2-dimethylamino-ethyl)-methanesulfonamide]
IC50 (Human JNK1α1): 3.7 nM | IC50 (Human JNK2α2): 24.6 nM

CC(=O)N1CCN(c2cccc3c2ccn3-c2ccnc(NC3CCCCC3)n2)CC1 [Compound I-37, 1-{4-[1-(2-Cyclohexylamino-pyrimidin-4-yl)-1H-indol-4-yl]-piperazin-1-yl}-ethanone]
IC50 (Human JNK1α1): 48.4 nM | IC50 (Human JNK2α2): 4030 nM

CC(=O)N1CCN(c2cccc3c2ccn3-c2ccnc(N[C@H]3CC[C@H](CS(C)(=O)=O)CC3)n2)CC1 [Compound I-41, 1-(4-{1-[2-(4-Methanesulfonylmethyl-cyclohexylamino)-pyrimidin-4-yl]-1H-indol-4-yl}-piperazin-1-yl)-ethanone]
IC50 (Human JNK1α1): 25 nM | IC50 (Human JNK2α2): 164 nM

CS(=O)(=O)C[C@H]1CC[C@H](Nc2nccc(-n3ccc4c(N5CCN(C(=O)CC#N)CC5)cccc43)n2)CC1 [Compound I-42, 3-(4-{1-[2-(4-Methanesulfonylmethyl-cyclohexylamino)-pyrimidin-4-yl]-1H-indol-4-yl}-piperazin-1-yl)-3-oxo-propionitrile]
IC50 (Human JNK1α1): 2.4 nM | IC50 (Human JNK2α2): 13.6 nM

N#CCC(=O)N1CCN(c2cccc3c2ccn3-c2ccnc(N[C@H]3CC[C@H](O)C3)n2)CC1 [Compound I-60, 3-(4-{1-[2-((1S,3S)-3-Hydroxy-cyclopentylamino)-pyrimidin-4-yl]-1H-indol-4-yl}-piperazin-1-yl)-3-oxo-propionitrile]
IC50 (Human JNK2α2): 150 nM

N#CCC(=O)N1CCN(c2cccc3c2ccn3-c2ccnc(N[C@@H]3CC[C@@H](O)C3)n2)CC1 [Compound I-61, 3-(4-{1-[2-((1R,3R)-3-Hydroxy-cyclopentylamino)-pyrimidin-4-yl]-1H-indol-4-yl}-piperazin-1-yl)-3-oxo-propionitrile]
IC50 (Human JNK2α2): 105 nM

CC(=O)N1CCN(c2cccc3c2c(C(N)=O)cn3-c2ccnc(N[C@H]3CC[C@H](CS(C)(=O)=O)CC3)n2)CC1 [Compound I-64, 4-(4-Acetyl-piperazin-1-yl)-1-[2-(4-methanesulfonylmethyl-cyclohexylamino)-pyrimidin-4-yl]-1H-indole-3-carboxylic acid amide]
IC50 (Human JNK2α2): 13.9 nM

From patent publication US8536172B2, “Inhibitors of JNK” (Roche Palo Alto LLC, priority 2009, dated 2013)
